Literature values in patent publication US20250268823A1, “Aqueous Quetiapine Solutions” (RELIIS LTD, priority 2022, published 2025).
Structures can show the parent of a compound that is named as a salt.

How the values were obtained:
[1] = molecular target: dopaminergic D1 receptors (Homo sapiens, UniProt P21728)
[2] = molecular target: dopaminergic D2 receptors (Homo sapiens, UniProt P14416)
dopaminergic D2 receptors, sequence (P14416 whole entry): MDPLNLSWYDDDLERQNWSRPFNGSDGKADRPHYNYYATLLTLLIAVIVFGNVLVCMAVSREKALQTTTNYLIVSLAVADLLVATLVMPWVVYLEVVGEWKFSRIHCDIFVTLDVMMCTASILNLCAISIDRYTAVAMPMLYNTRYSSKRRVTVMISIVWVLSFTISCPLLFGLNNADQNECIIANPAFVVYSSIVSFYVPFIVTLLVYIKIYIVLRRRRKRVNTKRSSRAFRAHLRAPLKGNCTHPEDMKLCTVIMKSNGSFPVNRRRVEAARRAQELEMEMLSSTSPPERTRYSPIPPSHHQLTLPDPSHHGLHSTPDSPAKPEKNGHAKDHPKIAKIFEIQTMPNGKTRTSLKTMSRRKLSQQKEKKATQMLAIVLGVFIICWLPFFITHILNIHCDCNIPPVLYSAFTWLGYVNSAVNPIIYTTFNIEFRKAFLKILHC

dopaminergic D1 receptors, sequence (P21728 whole entry): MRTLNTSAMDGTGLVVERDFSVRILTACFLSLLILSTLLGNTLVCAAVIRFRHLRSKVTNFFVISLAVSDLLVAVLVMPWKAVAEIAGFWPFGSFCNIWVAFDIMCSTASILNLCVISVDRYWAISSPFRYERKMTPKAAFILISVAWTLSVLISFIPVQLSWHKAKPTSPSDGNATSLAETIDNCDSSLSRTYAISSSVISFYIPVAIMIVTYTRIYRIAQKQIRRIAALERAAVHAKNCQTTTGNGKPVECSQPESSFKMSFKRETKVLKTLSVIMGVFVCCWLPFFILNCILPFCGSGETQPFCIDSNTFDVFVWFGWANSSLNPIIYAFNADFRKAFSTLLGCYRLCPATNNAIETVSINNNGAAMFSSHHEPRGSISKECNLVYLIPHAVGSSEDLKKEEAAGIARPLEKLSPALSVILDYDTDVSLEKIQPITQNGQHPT

SMILES	affinity to D1 receptors [1]	affinity to D2 receptors [2]	binding at D2 receptors [2]	affinity to α1-adrenergic receptors (α1-adrenergic receptors)	affinity to α2-adrenergic receptors (α2-adrenergic receptors)	solubility in water
OCCOCCN1CCN(C2=Nc3ccccc3Sc3ccccc32)CC1 [Quetiapine, 2-(2-(4-(dibenzo[b,f][1,4]thiazepin-11-yl)piperazin-1-yl)ethoxy)ethanol]	major affinity	major affinity	low binding	moderate affinity	moderate affinity	
OCCOCCN1CCN(C2=Nc3ccccc3Sc3ccccc32)CC1 [quetiapine fumarate]						about 0.04 mg/ml
